Test results from article PMC10445290, “Enantiomeric Fractions Reveal Differences in the Atropselective Disposition of 2,2′,3,5′,6-Pentachlorobiphenyl (PCB 95) in Wildtype, Cyp2abfgs-Null, and CYP2A6-Humanized Mice” (Chemical Research in Toxicology, 2023).

Assay: Levels of PCB 95 and its hydroxylated metabolites in adipose, blood, brain and liver 24 h after a single oral dose (GC-MS/MS)
Format: in vivo, mice
Conditions: female, C57BL/6 (wild-type), mouse, adipose, po, 1 mg/kg, FWT, female wildtype mice, single oral PCB 95 1.0 mg/kg, mean ± SD, read-out: Levels in adipose
Experimental: Adult male and female wild-type (WT) C57BL/6 mice, KO, and KI mice (4 months old) were exposed to racemic PCB 95. Mice were randomly assigned to exposure groups and received a single oral dose of PCB 95 (1.0 mg/kg) in stripped corn oil (10 mL/kg; lot# A0395699; cat# 801-03-7; Fisher Scientific) via gavage (5–7 mice per group). Control animals received corn oil alone (1–3 mice per group) to assess the potential background contamination with PCB 95. Animals were euthanized 24 h after PCB 95 exposure. Blood was collected from the heart and placed in pre-weighed glass vials with 80 μL of ethylenediaminetetraacetic acid solution (EDTA, 7.5%, w/w). The amount of blood in each vial was determined by weight prior to sample extraction. Adipose, brain, and liver tissues were excised from each animal and individually wrapped in aluminum foil. Samples were stored at −80 °C in separate plastic bags and shipped on dry ice to the University of Iowa for analysis.
PCB 95 and its hydroxylated metabolites were extracted from adipose (0.06 ± 0.01 g), brain (0.19 ± 0.03 g) and liver tissues (0.49 ± 0.07 g) by pressurized liquid extraction (PLE) with a Dionex ASE200 system (Dionex, Sunnyvale, CA, USA).[45] Tissues were homogenized with 2 g of pre-cleaned diatomaceous earth (Thermo Fisher Scientific, Pittsburgh, PA, USA) and placed in extraction cells loaded with 10 g of pre-extracted Florisil (60–100 mesh, Fisher Scientific, Pittsburgh, PA, USA). Tissue samples were then spiked with recovery standards [50 ng of PCB 117 in 50 μL of isooctane and 50 ng of 4′-159 (2′,3,3′,5,5′,6′-hexachlorobiphenyl-4-ol) in 50 μL of methanol]. For ongoing precision recovery (OPR) samples; recovery standard, internal standard, PCB 95, and its metabolites (50 ng each) were spiked to the method blank (DE only) and tissues from control animals. Cells were extracted with hexane–dichloromethane–methanol (48:43:9, v/v/v) at 100 °C and 1500 psi (10 MPa), with preheat equilibration for 6 min, 60% of cell flush volume, and 1 static cycle of 5 min. The extracts were concentrated to approximately 1 mL with a TurboVap II (Biotage, LLC, NC, USA) and transferred to new glass tubes with 1 mL of hexane. The solvent was evaporated to near dryness under a gentle stream of nitrogen, and extracts were redissolved in 1 mL of hexane.
PCB 95 and its hydroxylated metabolites were extracted from whole blood (0.45 ± 0.13 g) using a published liquid–liquid extraction procedure.[29] Briefly, blood samples were thawed, and 3 mL of aqueous 1% KCl solution was added to each sample. Recovery standards (50 ng of PCB 117 in 50 μL of isooctane and 50 ng of 4′-159 in 50 μL of methanol) were spiked to all samples, including OPR samples, before extraction. Subsequently, 1 mL of 6 M HCl, 5 mL of 2-propanol, and 5 mL of 1:1 hexane–MTBE mixture (v/v) were added to the blood samples. The samples were inverted for 5 min and centrifuged at 1690g for 5 min to facilitate the phase separation. Next, the organic phases were transferred to new glass tubes, and the aqueous phases were re-extracted with 3 mL of hexane. Next, three mL of aqueous 1% KCl were added to the combined organic extracts, and samples were inverted and centrifuged as described above. The organic phase was transferred to a new tube, and the aqueous phase was re-extracted with 3 mL of hexane. The combined organic extracts were evaporated to near dryness using a Savant SpeedVac SPD210 (Thermo Scientific, Waltham, MA, US), and each sample was reconstituted with 0.5 mL of hexane.
Five drops of methanol and 0.5 mL of diazomethane (CH2N2; about 0.1 mmol) in diethyl ether were added to the tissue or blood extracts to derivatize the OH-PCBs.[45] Diazomethane rapidly converts the phenolic hydroxyl groups of OH-PCBs to methoxy groups (i.e., −OH → −OCH3). All samples were stored at 4 °C for approximately 16 h. Excess diazomethane evaporated under a gentle stream of nitrogen in a fume hood, followed by adding 0.5 mL of hexane. […]
For Oc1cc(Cl)c(Cl)c(-c2cc(Cl)ccc2Cl)c1Cl [5-95, 2,2',3,5',6-pentachlorobiphenyl-5-ol], the concentration at 24 h was 1.3 ± 1.1 ng/g.

Same assay, conditions: female, C57BL/6 (wild-type), mouse, brain, po, 1 mg/kg, FWT, female wildtype mice, single oral PCB 95 1.0 mg/kg, mean ± SD, read-out: Levels in brain
In the case of Oc1cc(Cl)c(Cl)c(-c2cc(Cl)ccc2Cl)c1Cl [5-95, 2,2',3,5',6-pentachlorobiphenyl-5-ol], the concentration at 24 h is reported as 0.25 ± 0.02 ng/g.

Same assay, conditions: female, C57BL/6 (wild-type), mouse, liver, po, 1 mg/kg, FWT, female wildtype mice, single oral PCB 95 1.0 mg/kg, mean ± SD, read-out: Levels in liver
Work on Oc1cc(Cl)c(Cl)c(-c2cc(Cl)ccc2Cl)c1Cl [5-95, 2,2',3,5',6-pentachlorobiphenyl-5-ol] yielded a concentration at 24 h of 3.8 ± 1.6 ng/g.

Same assay, conditions: female, C57BL/6 (wild-type), mouse, whole blood, po, 1 mg/kg, FWT, female wildtype mice, single oral PCB 95 1.0 mg/kg, mean ± SD, read-out: Levels in blood
With Oc1cc(Cl)c(Cl)c(-c2cc(Cl)ccc2Cl)c1Cl [5-95, 2,2',3,5',6-pentachlorobiphenyl-5-ol] the concentration at 24 h was 0.9 ± 0.6 ng/g.

Same assay, conditions: female, CYP2A6-humanized (KI), mouse, adipose, po, 1 mg/kg, FKI, female CYP2A6-humanized mice, single oral PCB 95 1.0 mg/kg, mean ± SD, read-out: Levels in adipose
With Oc1cc(Cl)c(Cl)c(-c2cc(Cl)ccc2Cl)c1Cl [5-95, 2,2',3,5',6-pentachlorobiphenyl-5-ol] the concentration at 24 h was 1.1 ± 0.4 ng/g.

Same assay, conditions: female, CYP2A6-humanized (KI), mouse, liver, po, 1 mg/kg, FKI, female CYP2A6-humanized mice, single oral PCB 95 1.0 mg/kg, mean ± SD, read-out: Levels in liver
Molecule Oc1cc(Cl)c(Cl)c(-c2cc(Cl)ccc2Cl)c1Cl [5-95, 2,2',3,5',6-pentachlorobiphenyl-5-ol] has a concentration at 24 h of 5.5 ± 3.1 ng/g.

Same assay, conditions: female, CYP2A6-humanized (KI), mouse, whole blood, po, 1 mg/kg, FKI, female CYP2A6-humanized mice, single oral PCB 95 1.0 mg/kg, mean ± SD, read-out: Levels in blood
In the case of Oc1cc(Cl)c(Cl)c(-c2cc(Cl)ccc2Cl)c1Cl [5-95, 2,2',3,5',6-pentachlorobiphenyl-5-ol], the concentration at 24 h is reported as 1.9 ± 1.6 ng/g.

Same assay, conditions: female, Cyp2abfgs-null (KO), mouse, adipose, po, 1 mg/kg, FKO, female Cyp2abfgs-null mice, single oral PCB 95 1.0 mg/kg, mean ± SD, read-out: Levels in adipose
Oc1cc(Cl)c(Cl)c(-c2cc(Cl)ccc2Cl)c1Cl [5-95, 2,2',3,5',6-pentachlorobiphenyl-5-ol] showed a concentration at 24 h of 1 ± 0.4 ng/g.

Same assay, conditions: female, Cyp2abfgs-null (KO), mouse, liver, po, 1 mg/kg, FKO, female Cyp2abfgs-null mice, single oral PCB 95 1.0 mg/kg, mean ± SD, read-out: Levels in liver
In the case of Oc1cc(Cl)c(Cl)c(-c2cc(Cl)ccc2Cl)c1Cl [5-95, 2,2',3,5',6-pentachlorobiphenyl-5-ol], the concentration at 24 h is reported as 6.2 ± 1.1 ng/g.

Same assay, conditions: female, Cyp2abfgs-null (KO), mouse, whole blood, po, 1 mg/kg, FKO, female Cyp2abfgs-null mice, single oral PCB 95 1.0 mg/kg, mean ± SD, read-out: Levels in blood
Molecule Oc1cc(Cl)c(Cl)c(-c2cc(Cl)ccc2Cl)c1Cl [5-95, 2,2',3,5',6-pentachlorobiphenyl-5-ol] has a concentration at 24 h of 0.7 ± 0.3 ng/g.

Same assay, conditions: male, C57BL/6 (wild-type), mouse, adipose, po, 1 mg/kg, MWT, male wildtype mice, single oral PCB 95 1.0 mg/kg, mean ± SD, read-out: Levels in adipose
Work on Oc1cc(Cl)c(Cl)c(-c2cc(Cl)ccc2Cl)c1Cl [5-95, 2,2',3,5',6-pentachlorobiphenyl-5-ol] yielded a concentration at 24 h of 1.8 ± 1 ng/g.

Same assay, conditions: male, C57BL/6 (wild-type), mouse, liver, po, 1 mg/kg, MWT, male wildtype mice, single oral PCB 95 1.0 mg/kg, mean ± SD, read-out: Levels in liver
With Oc1cc(Cl)c(Cl)c(-c2cc(Cl)ccc2Cl)c1Cl [5-95, 2,2',3,5',6-pentachlorobiphenyl-5-ol] the concentration at 24 h was 3.3 ± 1.6 ng/g.

Same assay, conditions: male, C57BL/6 (wild-type), mouse, whole blood, po, 1 mg/kg, MWT, male wildtype mice, single oral PCB 95 1.0 mg/kg, mean ± SD, read-out: Levels in blood
Work on Oc1cc(Cl)c(Cl)c(-c2cc(Cl)ccc2Cl)c1Cl [5-95, 2,2',3,5',6-pentachlorobiphenyl-5-ol] yielded a concentration at 24 h of 1.1 ± 0.3 ng/g.

Same assay, conditions: male, CYP2A6-humanized (KI), mouse, adipose, po, 1 mg/kg, MKI, male CYP2A6-humanized mice, single oral PCB 95 1.0 mg/kg, mean ± SD, read-out: Levels in adipose
Oc1cc(Cl)c(Cl)c(-c2cc(Cl)ccc2Cl)c1Cl [5-95, 2,2',3,5',6-pentachlorobiphenyl-5-ol] gave a concentration at 24 h of 0.8 ± 0.5 ng/g.

Same assay, conditions: male, CYP2A6-humanized (KI), mouse, liver, po, 1 mg/kg, MKI, male CYP2A6-humanized mice, single oral PCB 95 1.0 mg/kg, mean ± SD, read-out: Levels in liver
Oc1cc(Cl)c(Cl)c(-c2cc(Cl)ccc2Cl)c1Cl [5-95, 2,2',3,5',6-pentachlorobiphenyl-5-ol] gave a concentration at 24 h of 3.3 ± 2.1 ng/g.

Same assay, conditions: male, CYP2A6-humanized (KI), mouse, whole blood, po, 1 mg/kg, MKI, male CYP2A6-humanized mice, single oral PCB 95 1.0 mg/kg, mean ± SD, read-out: Levels in blood
With Oc1cc(Cl)c(Cl)c(-c2cc(Cl)ccc2Cl)c1Cl [5-95, 2,2',3,5',6-pentachlorobiphenyl-5-ol] the concentration at 24 h was 0.6 ± 0.3 ng/g.

Same assay, conditions: male, Cyp2abfgs-null (KO), mouse, adipose, po, 1 mg/kg, MKO, male Cyp2abfgs-null mice, single oral PCB 95 1.0 mg/kg, mean ± SD, read-out: Levels in adipose
Oc1cc(Cl)c(Cl)c(-c2cc(Cl)ccc2Cl)c1Cl [5-95, 2,2',3,5',6-pentachlorobiphenyl-5-ol] showed a concentration at 24 h of 3.5 ± 4.8 ng/g.

Same assay, conditions: male, Cyp2abfgs-null (KO), mouse, liver, po, 1 mg/kg, MKO, male Cyp2abfgs-null mice, single oral PCB 95 1.0 mg/kg, mean ± SD, read-out: Levels in liver
Work on Oc1cc(Cl)c(Cl)c(-c2cc(Cl)ccc2Cl)c1Cl [5-95, 2,2',3,5',6-pentachlorobiphenyl-5-ol] yielded a concentration at 24 h of 3.7 ± 1.6 ng/g.

Same assay, conditions: male, Cyp2abfgs-null (KO), mouse, whole blood, po, 1 mg/kg, MKO, male Cyp2abfgs-null mice, single oral PCB 95 1.0 mg/kg, mean ± SD, read-out: Levels in blood
For Oc1cc(Cl)c(Cl)c(-c2cc(Cl)ccc2Cl)c1Cl [5-95, 2,2',3,5',6-pentachlorobiphenyl-5-ol], the concentration at 24 h was 0.7 ± 0.3 ng/g.
